“Also recorded” adds a separate entry of the source. Read-outs that look alike come from different tables or passages of the source.
Tested on: cartilage precursor cells from the developing limb bud of normal chick embryos
Test: Cartilage development in micromass cultures of cartilage precursor cells
Type: cell-based
[1] = varying doses of the salt added to basic culture medium (about 0.6 μg/ml ferrous sulphate, about 75 μg/ml ascorbic acid) vs control group without addition, FIG. 2, FIG. 4

Row | Compound | cartilage development (amount of cartilage produced) | further results
1 | O=C1O[C@H]([C@@H](O)CO)C(O)=C1O [ascorbic acid] |  | cartilage development (amount of cartilage produced) (ascorbic acid 75 or 150 μg/ml added vs control with no ascorbic acid added, FIG. 1): significantly enhances cartilage development in a dose-dependent manner
2 | O=S(=O)([O-])[O-].[Co+2] [cobalt (II) sulphate] | No statistically significant increase in cartilage development; also recorded: significantly reduce the amount of cartilage produced in a dose-dependent manner | 
3 | O=S(=O)([O-])[O-].O=S(=O)([O-])[O-].O=S(=O)([O-])[O-].[Fe+3].[Fe+3] [ferric sulphate] | no statistically significant difference | 
4 | O=C([O-])/C=C/C(=O)[O-].[Fe+2] [ferrous fumarate] |  | cartilage development (amount of cartilage produced) [1]: significantly enhanced cartilage production
5 | O=S(=O)([O-])[O-].[Fe+2] [ferrous sulphate] | significantly enhanced cartilage development in a dose-dependent manner | cartilage production when combined with ascorbic acid: significantly enhanced the cartilage production
6 | O=S(=O)([O-])[O-].[K+].[K+] [potassium sulphate] | No statistically significant increase in cartilage development | 
7 | O=S(=O)([O-])[O-].[Zn+2] [zinc sulphate] | no statistically significant increase in cartilage development | 
8 | ferrous ascorbate |  | cartilage development (amount of cartilage produced) [1]: significantly enhanced cartilage production

— US20010044425A1, “Compositions useful in the treatment of diseases of connective tissues” (priority 2000, published 2001)
